Laboratory results taken from the supplement of paper PMC10307832.

Tests used:
Test in all cases: relative viability (nuclei count vs DMSO), 5 days (fraction); higher = more cells survive
[1] = compound: CCn1c(-c2nonc2N)nc2c(C#CC(C)(C)O)ncc(OC[C@H]3CCCNC3)c21 + O=C(CCCCCCC(=O)Nc1ccccc1)NO [Vorinostat] (partner 1 µM)
Method in brief: (§1)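 Lung cancer cell lines in 1536-well plates got either a single drug or a fixed anchor-drug dose together with five library-drug doses (not always all listed) in √10 steps, by pin tool, on the day after seeding. Nuclei were counted after 5 days, and relative viability is the treated-to-vehicle ratio of nuclei counts. Values are medians of duplicate plates.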

[2] = compound: CCn1c(-c2nonc2N)nc2c(C#CC(C)(C)O)ncc(OC[C@H]3CCCNC3)c21 + CC(=O)c1c(C)c2cnc(Nc3ccc(N4CCNCC4)cn3)nc2n(C2CCCC2)c1=O [Palbociclib] (partner 0.5 µM)
Method in brief: as §1

[3] = compound: CCn1c(-c2nonc2N)nc2c(C#CC(C)(C)O)ncc(OC[C@H]3CCCNC3)c21 + COc1cccc2cc(-c3nc([C@H]4CC[C@H](C(=O)O)CC4)n4ncnc(N)c34)[nH]c12 [OSI-027] (partner 0.5 µM)
Method in brief: as §1

BAM7 + Luminespib = compound: CCOC1=CC=CC=C1N=NC2=C(NN(C2=O)C3=NC(=CS3)C4=CC=CC=C4)C [BAM7] + CCNC(=O)c1noc(-c2cc(C(C)C)c(O)cc2O)c1-c1ccc(CN2CCOCC2)cc1 [Luminespib] (partner 0.01 µM)
Method in brief: as §1

Cell Line: UMC-11
- relative viability ([1]; first compound 0.01 µM): 0.423
- relative viability ([1]; first compound 0.03162 µM): 0.375
- relative viability ([1]; first compound 0.1 µM): 0.357
- relative viability ([1]; first compound 0.3162 µM): 0.316
- relative viability ([1]; first compound 1 µM): 0.346
- relative viability ([2]; first compound 0.01 µM): 0.292
- relative viability ([2]; first compound 0.03162 µM): 0.291
- relative viability ([2]; first compound 0.1 µM): 0.305
- relative viability ([2]; first compound 0.3162 µM): 0.329
- relative viability ([2]; first compound 1 µM): 0.339
- relative viability ([3]; first compound 0.01 µM): 0.512
- relative viability ([3]; first compound 0.03162 µM): 0.489
- relative viability ([3]; first compound 0.1 µM): 0.515
- relative viability ([3]; first compound 0.3162 µM): 0.423
- relative viability ([3]; first compound 1 µM): 0.496
- relative viability (BAM7 + Luminespib; first compound 0.5 µM): 1.07
- relative viability (BAM7 + Luminespib; first compound 5 µM): 1.11
- relative viability (BAM7 + Luminespib; first compound 15.81 µM): 1.1
- relative viability (BAM7 + Luminespib; first compound 50 µM): 0.991
